Data published in PMC7217877, “N-AS-triggered SPMs are direct regulators of microglia in a model of Alzheimer’s disease” (Nature Communications, 2020).
“And” between values parts separate entries of the source, which are not always exact repeats. Equal values may be shown once.

Columns and labels:
neuron = assay: western blotting for ac-S565 and total COX2 in primary cells; format: cell-based, C57BL/6 mice; details: replicates
microglia = assay: quantification of 15R-LXA4, RvE1, RvD1 in primary cells (LC-MS/MS); format: cell-based, C57BL/6 mice; parameters: unit not given here; details: replicates
Procedure: Lipid mediators metabololipidomics were performed according to previously described procedures with minor modifications[4],[30]. To confirm the biosynthesis of lipid mediators by recombinant COX2 treated with N-AS or aspirin, 10 U of human recombinant COX2 (Cayman, 60122) was incubated in the presence of 500 μM aspirin (Sigma-Aldrich, A5376) or N-AS (Sigma-Aldrich, 01912) at 37 °C for 30 min. The enzyme was filtered with a Microcon column (Millipore) to remove unreacted aspirin or N-AS and was then resuspended in 0.1 M Tris-HCl (pH 8.0). Next, 500 μM phenol (Sigma-Aldrich) and 1 μM hematin-porcine (Sigma-Aldrich) were added immediately before incubation with 100 μM AA, EPA or DHA (Cayman) at 37 °C for 2 h, respectively. The mixtures were incubated with 30 U of human 5-LOX (Cayman, 60402) containing 2 mM CaCl2 (Sigma-Aldrich), 1 mM ATP (Amresco) and 5 μM 13-HpODE (Cayman) as activators. Also, to validate the importance of residue S565 for N-AS-acetylation of COX2 and production of SPMs, 10 U of the COX2 S565A mutant was used in the above-described method. In addition, to confirm SPM generation in neurons and microglia, these cells were treated with Aβ and sonicated in neuronal and glial culture medium. […] To evaluate the relationship of N-AS and SPM production in microglia, microglia were isolated from WT, APP/PS1, and APP/PS1 treated with N-AS mice at 9 months of age. The microglia were sonicated and resuspended in microglial culture medium. The supernatants were incubated with 100 μM AA, EPA, and DHA (Cayman) at 37 °C for 2 h. A 50 μl aliquot of the mixture from each cell lysate was added to a 250 μl aliquot of 1 ng ml^−1 of 15S-LXA4-d5 (internal standard, Cayman) methanol solution. After vortexing for 10 min and centrifuging at 15,974×g for 5 min, the supernatant was subjected to the analysis of the lipid mediators using an Agilent 6470 Triple Quad LC-MS/MS system (Agilent) coupled to an Agilent 1290 HPLC system. Chromatographic separation was achieved using a Synergi Polar RP (4 μm, 2.0 mm i.d. × 150 mm, Phenomenex). Analytes were eluted with a mobile phase consisting of water: formic acid (100:0.1 v/v) (phase A) and methanol: formic acid (100:0.1 v/v) (phase B) in gradient elution mode for 23 min a flow rate of 0.2 ml min^−1. The elution gradient was as follows: from 0 to 0.1 min the content of phase A was 37% and the content of phase A was decreased to 10% and maintained for 5.5 min. The content of phase A was increased back to 37% at 6.0 min and maintained for 23 min. Quantification was carried out using MRM in negative ionization mode and collision energy of 10–15 eV. The mass transition from Q1 to Q3 is shown in Supplementary Table 2. In this study, the peak areas for all components were automatically integrated using MassHunter B 06.00. […]

[1] = tested on: immortalized human microglia; assay: LM-SPM profile of human microglia (LC-MS/MS, Supplementary Table 3, Fig 6d); format: cell-based; parameters: 15R-LxA4 / RvE1 / RvD1: unit not given here; details: for 11-HEPE in human microglia / 11-HETE in human microglia / 13-HDHA in human microglia / 15-HEPE in human microglia / 15-HETE in human microglia / 15R-LXA4 in human microglia / 17-HDHA in human microglia / 18-HEPE in human microglia / PGE3/PGD3 in human microglia / PGH2/PGE2 in human microglia / RvD1 in human microglia / RvE1 in human microglia: mean±s.e.m.; for 15R-LxA4 / RvD1 / RvE1: human microglia, sFig 6d

CCCCCCCCCCCCC/C=C/[C@@H](O)[C@@H](N)CO [Sph, sphingosine]
ac-S565, western blotting (Fig 3h) (neuron; Ab 10mM + supplement): 0.6309 and 0.6553 and 0.6332 and 0.656 | 15R-LxA4 (Fig 3i) (microglia; Ab + supplement): 0.0305 and 0.03209 and 0.03444 and 0.02809 and 0.03291 and 0.03127 | RvD1 (Fig 3i) (microglia; Ab + supplement): 0.01033 | RvE1 (Fig 3i) (microglia; Ab + supplement): 0.01434 and 0.01128 and 0.01433 and 0.01281 (2×) and 0.01357

Ab: Aβ 1–42 (Invitrogen, 03112) used to induce an AD environment in cells
ac-S565, western blotting (Fig 3h) (neuron; Ab 10mM, no supplement): 0.4287 and 0.5828 and 0.4634 and 0.6503 | ac-S565 / total COX2, western blotting (Fig 3b) (neuron; Ab 10mM): 0.7374 and 0.6807 and 0.7791 and 0.4902 and 0.709 and 0.7299 | 15R-LxA4 (Fig 3i) (microglia; Ab, no supplement): 0.02349 and 0.02377 and 0.02373 and 0.02259 and 0.02438 and 0.02316 | RvD1 (Fig 3i) (microglia; Ab, no supplement): 0.01012 | RvE1 (Fig 3i) (microglia; Ab, no supplement): 0.01237 and 0.02326 and 0.01244 and 0.01782 and 0.01785 and 0.01513 | 11-HEPE in human microglia ([1]; Aβ 50 µM alone): 490.2±2.4 ng/ml*106cell | 11-HETE in human microglia ([1]; Aβ 50 µM alone): 174.9±2.0 ng/ml*106cell | 13-HDHA in human microglia ([1]; Aβ 50 µM alone): 128.2±1.8 ng/ml*106cell | 15-HEPE in human microglia ([1]; Aβ 50 µM alone): 272.1±7.3 ng/ml*106cell | 15-HETE in human microglia ([1]; Aβ 50 µM alone): 564.3±4.4 ng/ml*106cell | 15R-LXA4 in human microglia ([1]; Aβ 50 µM alone): 0.03±0.0 ng/ml*106cell | 17-HDHA in human microglia ([1]; Aβ 50 µM alone): 561.8±2.7 ng/ml*106cell | 18-HEPE in human microglia ([1]; Aβ 50 µM alone): 1515.3±10.4 ng/ml*106cell | PGE3/PGD3 in human microglia ([1]; Aβ 50 µM alone): 163.9±2.5 ng/ml*106cell | PGH2/PGE2 in human microglia ([1]; Aβ 50 µM alone): 78.7±0.8 ng/ml*106cell | RvD1 in human microglia ([1]; Aβ 50 µM alone): 0.01±0.0 ng/ml*106cell | RvE1 in human microglia ([1]; Aβ 50 µM alone): 0.01±0.0 ng/ml*106cell

CC(=O)SCCNC(=O)CCNC(=O)[C@H](O)C(C)(C)COP(=O)(O)OP(=O)(O)OC[C@H]1O[C@@H](n2cnc3c(N)ncnc32)[C@H](O)[C@@H]1OP(=O)(O)O [Acetyl-CoA, acetyl-CoA]
ac-S565, western blotting (Fig 3h) (neuron; Ab 10mM + supplement): 0.4974 and 0.4784 and 0.4801 and 0.5239 | 15R-LxA4 (Fig 3i) (microglia; Ab + supplement): 23.4411 and 23.4018 and 22.7231 and 22.8804 and 24.0018 and 22.8017 | RvD1 (Fig 3i) (microglia; Ab + supplement): 1.293 and 1.217 and 1.321 and 1.255 and 1.269 and 1.288 | RvE1 (Fig 3i) (microglia; Ab + supplement): 7.62 and 7.421 and 7.916 and 7.52 and 7.668 and 7.718 | 15R-LxA4 ([1]; Aβ 50 µM +): 29.8592 and 28.6097 and 30.6248 and 29.0936 and 30.1012 | RvD1 ([1]; Aβ 50 µM +): 2.566 and 2.828 and 2.839 and 2.697 and 2.833 and 2.768 | RvE1 ([1]; Aβ 50 µM +): 14.9946 and 13.574 and 15.0361 and 14.2843 and 14.305

CCCCCCCCCCCCC/C=C/[C@@H](O)[C@H](CO)NC(C)=O [N-AS, N-((2S,3R,E)-1,3-Dihydroxyoctadec-4-en-2-yl)acetamide]
ac-S565, western blotting (Fig 3h) (neuron; Ab 10mM + supplement): 1.382 and 1.374 (2×) and 1.247 | 15R-LxA4 (Fig 3i) (microglia; Ab + supplement): 7.914 and 7.871 and 7.582 and 7.755 and 8.0725 and 7.669 | RvD1 (Fig 3i) (microglia; Ab + supplement): 0.9961 and 0.9192 and 1.008 and 0.9576 and 0.9636 and 0.9828 | RvE1 (Fig 3i) (microglia; Ab + supplement): 3.41 and 3.669 and 3.726 and 3.54 and 3.698 and 3.633 | 11-HEPE in human microglia ([1]; Aβ 50 µM + treatment): 371.7±4.0 ng/ml*106cell | 11-HETE in human microglia ([1]; Aβ 50 µM + treatment): 148.4±1.9 ng/ml*106cell | 13-HDHA in human microglia ([1]; Aβ 50 µM + treatment): 133.0±1.8 ng/ml*106cell | 15-HEPE in human microglia ([1]; Aβ 50 µM + treatment): 237.9±3.7 ng/ml*106cell | 15-HETE in human microglia ([1]; Aβ 50 µM + treatment): 625.4±1.7 ng/ml*106cell | 15R-LXA4 in human microglia ([1]; Aβ 50 µM + treatment): 19.8±0.2 ng/ml*106cell | 17-HDHA in human microglia ([1]; Aβ 50 µM + treatment): 707.6±8.2 ng/ml*106cell | 18-HEPE in human microglia ([1]; Aβ 50 µM + treatment): 1763.6±30.4 ng/ml*106cell | PGE3/PGD3 in human microglia ([1]; Aβ 50 µM + treatment): 132.9±2.0 ng/ml*106cell | PGH2/PGE2 in human microglia ([1]; Aβ 50 µM + treatment): 95.7±0.9 ng/ml*106cell | RvD1 in human microglia ([1]; Aβ 50 µM + treatment): 2.13±0.02 ng/ml*106cell | RvE1 in human microglia ([1]; Aβ 50 µM + treatment): 8.6±0.3 ng/ml*106cell | SPM production, in words ([1]; Aβ-treated human microglia + N-AS): improved SPM production | 11-HEPE in human microglia ([1]; Control (no Aβ) + treatment): 451.8±4.6 ng/ml*106cell | 11-HETE in human microglia ([1]; Control (no Aβ) + treatment): 161.8±0.9 ng/ml*106cell | 13-HDHA in human microglia ([1]; Control (no Aβ) + treatment): 133.9±2.2 ng/ml*106cell | 15-HEPE in human microglia ([1]; Control (no Aβ) + treatment): 284.1±4.0 ng/ml*106cell | 15-HETE in human microglia ([1]; Control (no Aβ) + treatment): 625.5±6.8 ng/ml*106cell | 15R-LXA4 in human microglia ([1]; Control (no Aβ) + treatment): 28.7±0.3 ng/ml*106cell | 17-HDHA in human microglia ([1]; Control (no Aβ) + treatment): 633.8±9.2 ng/ml*106cell | 18-HEPE in human microglia ([1]; Control (no Aβ) + treatment): 1636.9±19.7 ng/ml*106cell | PGE3/PGD3 in human microglia ([1]; Control (no Aβ) + treatment): 113.1±1.6 ng/ml*106cell | PGH2/PGE2 in human microglia ([1]; Control (no Aβ) + treatment): 105.8±1.1 ng/ml*106cell | RvD1 in human microglia ([1]; Control (no Aβ) + treatment): 2.36±0.02 ng/ml*106cell | RvE1 in human microglia ([1]; Control (no Aβ) + treatment): 18.5±0.4 ng/ml*106cell | 15R-LxA4 ([1]; Aβ 50 µM +): 20.003 and 19.3859 and 19.5943 and 20.5159 and 19.4901 and 20.0551 | RvD1 ([1]; Aβ 50 µM +): 2.139 and 2.0589 and 2.21 and 2.099 and 2.134 and 2.154 | RvE1 ([1]; Aβ 50 µM +): 9.835 and 7.339 and 9.039 and 8.587 and 8.189 and 8.813 | 15R-LxA4 ([1]; Aβ 50 µM -): 29.0008 and 28.9046 and 27.6099 and 29.7445 and 28.2572 and 28.6772 | RvD1 ([1]; Aβ 50 µM -): 2.289 and 2.353 and 2.443 and 2.321 and 2.398 and 2.382 | RvE1 ([1]; Aβ 50 µM -): 19.7237 and 16.8195 and 19.2333 and 18.2716 and 18.0264 and 18.7524

B1: Sphk1: purified sphingosine kinase1 enzyme (Cayman, 10348) supplemented to cell lysates (protein, UniProt Q9NYA1 1-384, looked up)
Sphingosine kinase 1: MDPAGGPRGVLPRPCRVLVLLNPRGGKGKALQLFRSHVQPLLAEAEISFTLMLTERRNHARELVRSEELGRWDALVVMSGDGLMHEVVNGLMERPDWETAIQKPLCSLPAGSGNALAASLNHYAGYEQVTNEDLLTNCTLLLCRRLLSPMNLLSLHTASGLRLFSVLSLAWGFIADVDLESEKYRRLGEMRFTLGTFLRLAALRTYRGRLAYLPVGRVGSKTPASPVVVQQGPVDAHLVPLEEPVPSHWTVVPDEDFVLVLALLHSHLGSEMFAAPMGRCAAGVMHLFYVRAGVSRAMLLRLFLAMEKGRHMEYECPYLVYVPVVAFRLEPKDGKGVFAVDGELMVSEAVQGQVHPNYFWMVSGCVEPPPSWKPQQMPPPEEPL
ac-S565, western blotting (Fig 3h) (neuron; Ab 10mM + supplement): 1.248 and 1.156 and 1.263 and 1.199 | 15R-LxA4 (Fig 3i) (microglia; Ab + supplement): 0.02407 and 0.02353 and 0.02184 and 0.02402 and 0.02413 and 0.02293 | RvD1 (Fig 3i) (microglia; Ab + supplement): 0.01112 | RvE1 (Fig 3i) (microglia; Ab + supplement): 0.01218 and 0.0124 and 0.01241 (2×) and 0.01229 and 0.01235
